Assay results taken from patent publication US4492650A, “A54556 Antibiotics and process for production thereof” (Eli Lilly and Company, priority 1982, dated 1985).
In brackets after ≈: the same amount, converted by molar mass. Several values for one entry are separate records, joined by “and”; a condition that tells them apart may be missing. Equal entries are not always repeated. Where two headings read alike, the source gives them in different places. Bridge positions count the residues as written; N and C are the ends. Square brackets hold non-standard residues; d marks the D form. Peptide text beside a SMILES is read from it. * marks the point of attachment. ξ: configuration not given here. Octatrienoyl(2E,4E,6E) = C/C=C/C=C/C=C/C(=O)*; ξPro(4ξ-Me) = CC1CNC(C(=O)O)C1; X2 = CCC/C=C/C=C/C(=O)*; NMeA = CN[CH](C)C(=O)O

What was measured:
anaerobic bacteria = assay: Activity against anaerobic bacteria; type: cell-based; details: agar-dilution method
[1] = system: Clostridium perfringens 81; assay: microbe, parasite or virus in culture; type: cell-based
[2] = system: experimental bacterial infections; assay: In vivo antimicrobial activity against experimental bacterial infections; details: mice, subcutaneously
Description: (§1) When two doses of test compound were administered subcutaneously to mice in illustrative infections, the activity is measured as an ED50 value [effective does in mg./kg. to protect fifty percent of the test animals: See Warren Wick et al., J. Bacteriol. 81, 233-235 (1961)]. The ED50 values for these antibiotic A54556 factors are recorded in Table 15, which follows.

[3] = system: Bacteroides corrodens 1874; assay: MIC, agar-dilution method; type: cell-based; details: Eikenella corrodens
[4] = system: Staphylococcus aureus V41; details: second test, Table 13, benzylpenicillin resistant
[5] = system: Streptococcus pyogenes (Group A) C203; details: second test, Table 13
[6] = system: Peptostreptococcus anaerobius 1428; assay: MIC, agar-dilution method; type: cell-based
[7] = system: Peptococcus asaccharolyticus 1302; assay: MIC, agar-dilution method; type: cell-based; details: Peptoniphilus asaccharolyticus
Peptococcus prevoti 1281 = assay: MIC, agar-dilution method; type: cell-based
[8] = system: Fusobacterium symbiosum 1470; assay: MIC, agar-dilution method; type: cell-based
[9] = system: Bacteroides vulgatis 1211; assay: MIC, agar-dilution method; type: cell-based
[10] = system: Staphylococcus epidermidis EPI1; details: second test, Table 13
S. pyogenes = assay: In vivo protection against experimental bacterial infection in mice; details: Streptococcus pyogenes, sc, two doses subcutaneously
Description: as §1

[11] = system: Streptococcus sp. (Group D) X66; assay: Disc-plate sensitivity; type: cell-based; details: second test, Table 13; for Zone diameter: listed as B; for zone of inhibition at 300 µg/disc / zone of inhibition at 30 µg/disc: Streptococcus; for zone of inhibition at 30 µg/disc: read-out: Zone diameter, 30 mcg./disc
Electrometric titration = type: physicochemical; details: 66 percent dimethylformamide in water
Excerpt: Antibiotic A54556 factor A is a tan, amorphous solid. […] As determined by electron impact and field desorption mass spectrometry, A54556 factor A has a molecular weight of 718.

[12] = system: Streptococcus pneumoniae Park I; details: second test, Table 13
[13] = system: Fusobacterium necrophorum 6054A; assay: MIC, agar-dilution method; type: cell-based
Excerpt: (§2) Antibiotic A54556 factors A, B, C, D, E, F, G, and H have been tested and found to be active against a number of anaerobic bacteria, as recorded in Table 14, which follows, the MIC values having been determined by the agar-dilution method.

[14] = system: Clostridium difficile 2994; assay: MIC, agar-dilution method; type: cell-based; details: Clostridioides difficile
Excerpt: as §2

[15] = system: Bacteroides melaninogenicus 1856/28; assay: MIC, agar-dilution method; type: cell-based; details: Prevotella intermedia
Excerpt: as §2

[16] = system: Propionibacterium acnes 79; assay: MIC, agar-dilution method; type: cell-based; details: Cutibacterium acnes
Excerpt: as §2

[17] = system: Peptostreptococcus intermedius 1264; assay: MIC, agar-dilution method; type: cell-based
Excerpt: as §2

[18] = system: Eubacterium aerofaciens 1235; assay: MIC, agar-dilution method; type: cell-based; details: Collinsella aerofaciens
Excerpt: as §2

Bacteroides fragilis 111 = assay: MIC, agar-dilution method; type: cell-based
Excerpt: as §2

[19] = system: Bacteroides fragilis 1877; assay: MIC, agar-dilution method; type: cell-based
Excerpt: as §2

[20] = system: Bacteroides melaninogenicus 2736; assay: MIC, agar-dilution method; type: cell-based
Excerpt: as §2

[21] = system: Bacteroides thetaiotaomicron 1438; assay: MIC, agar-dilution method; type: cell-based
Excerpt: as §2

[22] = system: Clostridium septicum 1128; assay: MIC, agar-dilution method; type: cell-based
Excerpt: as §2

[23] = system: Bacteroides fragilis 1936B; assay: MIC, agar-dilution method; type: cell-based
Excerpt: as §2

[24] = system: Staphylococcus aureus 3055; details: second test, Table 13, benzylpenicillin-susceptible
Culture A54556 = assay: Sensitivity of Culture A54556 to antibiotics, sensitivity discs on ISP medium No. 2 agar; type: cell-based, Streptomyces hawaiiensis NRRL 15010; further: key: +: sensitive, zones of inhibition; -: resistant, no zones of inhibition
Description: The sensitivity of Culture A54556 to several antibiotics at specific concentrations was determined with sensitivity discs padded onto the surface of plates containing ISP medium No. 2 agar seeded with 2% inoculum of Culture A54556.

| Structure (SMILES) | activity against a number of anaerobic bacteria (anaerobic bacteria) | MIC [1] [mg/L] | in vivo antimicrobial activity against experimental bacterial infections [2] | MIC [3] [mg/L] | Zone diameter ([4]; 30 mcg./disc) | Zone diameter ([4]; 300 mcg./disc) | ED50 (S. pyogenes) [mg/kg] | zone of inhibition at 30 µg/disc [11] [mm] | titratable groups (Electrometric titration) | Zone diameter ([12]; 30 mcg./disc) [mm.] | Zone diameter ([12]; 300 mcg./disc) [mm.] | MIC [13] [mg/L] | MIC [14] [mg/L] | MIC [15] [mg/L] | MIC [16] [mg/L] | MIC [17] [mg/L] | MIC [18] [mg/L] | MIC (Bacteroides fragilis 111) [mg/L] | MIC [19] [mg/L] | MIC [20] [mg/L] | other results |
| --- | --- | --- | --- | --- | --- | --- | --- | --- | --- | --- | --- | --- | --- | --- | --- | --- | --- | --- | --- | --- | --- |
| C/C=C/C=C/C=C/C(=O)NC(Cc1ccccc1)C(=O)NC1COC(=O)C2CCCN2C(=O)C(C)NC(=O)C(C)N(C)C(=O)C2CCCN2C1=O (centres unmarked) [Factor B] ({Octatrienoyl(2E,4E,6E)}-FSP[NMeA]AP; ester 2-C; configuration not given here) | active | 16 (≈ 22.7 µM) | have shown in vivo antimicrobial activity | > 128 | 15 mm. and 18 mm. | 19 mm. and 26 mm. | > 70 | 22 | no titratable groups | 25 | 32 | 16 (≈ 22.7 µM) | > 128 | > 128 | > 128 | > 128 | 16 (≈ 22.7 µM) | 32 (≈ 45.4 µM) | > 128 | > 128 | Zone diameter ([5]; 30 mcg./disc, listed as B): 18 mm. and 26 mm.; Zone diameter ([5]; 300 mcg./disc, listed as B): 24 mm. and 30 mm.; MIC ([6]; agar-dilution, read-out: MIC): 8 mg/L (≈ 11.4 µM); MIC ([7]; agar-dilution, read-out: MIC): 8 mg/L (≈ 11.4 µM); MIC (Peptococcus prevoti 1281; agar-dilution, read-out: MIC): 8 mg/L (≈ 11.4 µM); MIC ([8]; agar-dilution, read-out: MIC): 8 mg/L (≈ 11.4 µM); MIC ([9]; agar-dilution, read-out: MIC): 32 mg/L (≈ 45.4 µM); Zone diameter ([10]; 30 mcg./disc, listed as B): 13 mm. and 16 mm.; Zone diameter ([10]; 300 mcg./disc, listed as B): 21 mm. and 27 mm.; Zone diameter ([11]; 30 mcg./disc): 23 mm.; Zone diameter ([11]; 300 mcg./disc): 27 mm.; zone of inhibition at 300 µg/disc ([11]; 300 mcg./disc, read-out: Zone diameter): 30 mm; Zone diameter ([12]; 30 mcg./disc, listed as B): 20 mm.; Zone diameter ([12]; 300 mcg./disc, listed as B): 35 mm.; MIC [21]: 16 mg/L (≈ 22.7 µM); MIC [22]: 16 mg/L (≈ 22.7 µM); MIC [23]: 16 mg/L (≈ 22.7 µM); Zone diameter ([24]; 30 mcg./disc): 18 mm. and 20 mm.; Zone diameter ([24]; 300 mcg./disc): 26 mm. |
| CCC/C=C/C=C/C(=O)NC(Cc1ccccc1)C(=O)NC1COC(=O)C2CCCN2C(=O)C(C)NC(=O)C(C)N(C)C(=O)C2CC(C)CN2C1=O (centres unmarked) [Factor D] (X2-FS[ξPro(4ξ-Me)][NMeA]AP; ester 2-C; configuration not given here) | active | > 128 | have shown in vivo antimicrobial activity | > 128 | 27 mm. | 28 mm. | > 70 | 26 | no titratable groups | 30 | 34 | > 128 | > 128 | > 128 | > 128 | > 128 | > 128 | > 128 | > 128 | > 128 | Zone diameter ([5]; 30 mcg./disc): 24 mm.; Zone diameter ([5]; 300 mcg./disc): 32 mm.; MIC [6]: 128 mg/L (≈ 178 µM); MIC [7]: 128 mg/L (≈ 178 µM); MIC (Peptococcus prevoti 1281): > 128 mg/L; MIC [8]: > 128 mg/L; MIC [9]: > 128 mg/L; Zone diameter ([10]; 30 mcg./disc): 25 mm.; Zone diameter ([10]; 300 mcg./disc): 34 mm.; zone of inhibition at 300 µg/disc ([11]; read-out: Zone diameter, 300 mcg./disc): 33 mm; MIC [21]: > 128 mg/L; MIC [22]: > 128 mg/L; MIC [23]: > 128 mg/L; Zone diameter ([24]; 30 mcg./disc): 29 mm.; Zone diameter ([24]; 300 mcg./disc): 30 mm. |
| CC(=O)OCC1=C(C(=O)O)N2C(=O)[C@@H](NC(=O)Cc3cccs3)[C@H]2SC1 [Cephalothin] |  |  |  |  |  |  |  |  |  |  |  |  |  |  |  |  |  |  |  |  | Antibiotic Sensitivity of Culture A54556 (Culture A54556; 30 mcg. disc): - |
| [H]/N=C(/N)N[C@H]1[C@H](O)[C@@H](O)[C@H](O[C@@H]2O[C@@H](C)[C@](O)(C=O)[C@H]2O[C@@H]2O[C@@H](CO)[C@H](O)[C@@H](O)[C@@H]2NC)[C@@H](N/C(N)=N\[H])[C@@H]1O [Streptomycin] |  |  |  |  |  |  |  |  |  |  |  |  |  |  |  |  |  |  |  |  | Antibiotic Sensitivity of Culture A54556 (Culture A54556; 10 mcg. disc): + |
| CN(C)C1C(=O)C(C(N)=O)=C(O)C2(O)C(=O)C3=C(O)c4c(O)cccc4C(C)(O)C3CC12 (centres unmarked) [Tetracycline] |  |  |  |  |  |  |  |  |  |  |  |  |  |  |  |  |  |  |  |  | Antibiotic Sensitivity of Culture A54556 (Culture A54556; 30 mcg. disc): + |
